Data on 4 compounds can be found in publication PMC9394307, “Discovery of Putative Dual Inhibitor of Tubulin and EGFR by Phenotypic Approach on LASSBio-1586 Homologs” (Pharmaceuticals, 2022).

Values joined by “and” are separate entries in the source; they are usually repeats but may differ in a detail not shown here. Equal values may be shown once. Read-outs that look alike come from different tables or passages of the source.

A short description of data set [1]: MTT cell viability assay, GM16000 lymphocytes. Conditions: GM16000 lymphocyte cells (non-tumor), human lymphocytes, value (95% CI). It is filed as cell-based. The method, then:
(§1) The cytotoxic activity of compounds 3–13 was determined based on an MTT assay against different human tumor cell lines, using LASSBio-1586 (2), LASSBio-1735 (3), CA-4 (1) and pelitinib as standards (Table 2). To determine the cytotoxic selectivity index, compounds were also evaluated toward human lymphocytes (Table 3).
To establish the cytotoxic selective index (SI) of LASSBio-1586 homologs, they were studied on human lymphocyte cell lines (GM16000), using the MTT assay. The SI was calculated by the ratio between the CC50 on tumor and non-tumor cell lines. Although there is no consensus, values of SI ≥ 10 is considered satisfactory to assign safety to a new cytotoxic agent. This value means that the compound is more than ten times more cytotoxic to the tumor cell line than to normal cell line.
(§2) The target compounds were tested (0.0001–100 µM) for cytotoxic activity against selected human cancer cell lines, such as HL-60 (acute promyelocytic leukemia), MCF-7 (mammary adenocarcinoma), PC-3 (prostate adenocarcinoma), H1975 (non-small cell lung cancer—EGFR^L858R+T790M), PC-9 (non-small cell lung cancer—EGFR^L858R) H292 (mucoepidermoid pulmonary carcinoma—EGFR wild type), LoVo (colorectal adenocarcinoma—EGFRwild type) and GM16000 (lymphocyte). All the human cancer cell lines were purchased from Cell Bank of Rio de Janeiro—BCRJ. They were cultured in RPMI 1640 medium with 10% (v/v) FBS, 2 mM glutamine, at 37 °C in a humidified incubator containing 5% CO2.
(§3) The cytotoxicity of the compounds was evaluated by the MTT assay. The cell lines were cultured in 96 well plates for 72 h with a density of 0.1 × 10^5 cells/mL to 0.7 × 10^5 cells/mL to adherent cell lines. For lymphocytic lines, a density of 0.3 × 10^6 cells/mL was used. Afterwards they were treated with varying concentrations of the target compounds 2–12 (0.0001–100 µM), CA-4 (1) and pelitinib at 37 °C, in triplicate. The medium was incubated with 20 μL of 5 mg/mL MTT solution for 3 h in a humidified incubator containing 5% CO2 [11].
(§4) The purple-colored formazan crystals formed in the wells were dissolved in DMSO and their absorbance was measured at 595 nm with a microplate reader (SpectraMax M5, Molecular Devices).
(In general: Tetrazolium assays rely on reduction of a dye to a coloured formazan, in cell work by metabolically active cells.)

The test system of the next data set is PC-9. In words: MTT cell viability assay, PC-9. It counts as cell-based, human. Conditions: Homo sapiens, MTT, value (95% CI), read-out: CC50 (µM) (CI) PC-9. How it is done: as §1, §2
(§5) The cytotoxicity of the compounds was evaluated by the MTT assay. […] For lymphocytic lines, a density of 0.3 × 10^6 cells/mL was used. Afterwards they were treated with varying concentrations of the target compounds 2–12 (0.0001–100 µM), CA-4 (1) and pelitinib at 37 °C, in triplicate. The medium was incubated with 20 μL of 5 mg/mL MTT solution for 3 h in a humidified incubator containing 5% CO2 [11].
as §4

The test system of data set [2] is LoVo. In words: MTT cell viability assay, LoVo. It is filed as cell-based. As to conditions: Homo sapiens, MTT, 72 h, value (95% CI), read-out: CC50 (µM) (CI) LoVo. The method, then: as §1, §2, §3, §4
The nature of data set [3]: MTT cell viability assay, GM16000 lymphocytes. It is filed as cell-based. Conditions: GM16000 lymphocyte cells (non-tumor), human lymphocytes, value (95% CI). The source holds these as a separate data set.
The subject of the next data set is H1975 cells. Description: Immunofluorescence of β-tubulin / microtubules. It is filed as cell-based, human. Conditions: H1975, 48 h, CA-4 0.3 µM, vincristine 0.5 µM, taxol 0.1 µM, LASSBio-1586 10 µM, LASSBio-1735 0.5 µM, LASSBio-2070 4.5 µM, LASSBio-2074 20 µM. The method, then:
Antitubulin agents have been broadly classified into destabilizing or stabilizing agents, based on their interference with the dynamic balance of polymerization or depolymerization of microtubules. […] CA-4 (1, 0.3 µM), vincristine (0.5 µM) and taxol (0.1 µM) were used as standard controls.
After incubation, cells were rinsed with PBS and fixed with 4% paraformaldehyde in PBS for 10 min at room temperature. They were then permeabilized with 0.5% Triton-X 100 in PBS 3 times for 10 min. The same solution was used for all subsequent washing steps. Cells were incubated with an anti-beta-tubulin antibody for 1 h at 37 °C. After incubation, cells were washed for 30 min and incubated with Alexa Fluor® 488, conjugated secondary antibody for 1 h at 37 °C, and nuclei were labeled with DAPI (0.1 mg/mL in 0.9% NaCl).
Live cultured cells grown in coverslips were mounted in Prolong Gold solution (Molecular Probes, USA) and were imaged on a Leica TCS SPE confocal microscope (Leica Microsystems, Germany) using 63x 1.3 N.A. oil immersion and the images acquired by the LAS X software. Cell morphology, focusing on the microtubules was analyzed, qualitatively, using the public domain NIH ImageJ Program (developed at the National Institutes of the USA Health and available on the internet at http://imagej.nih.gov/ij/ (accessed on 1 September 2021).

The next data set relates to H292. Description: MTT cell viability assay, H292. It counts as cell-based, human. As to conditions: Homo sapiens, MTT, value (95% CI), read-out: CC50 (µM) (CI) H292. How it is done:
as §1, §2, §5, §4

A further data set relates to MCF-7. Description: MTT cell viability assay, MCF-7. It is filed as cell-based, human. As to conditions: MTT, 72 h, value (95% CI), read-out: CC50 (µM) (CI) MCF-7. How it is done: as §1, §2, §3, §4
For data set [4], the system named is LoVo. In words: MTT cell viability assay, LoVo. It is filed as cell-based. As to conditions: Homo sapiens, 48 h, value (95% CI).
Another data set concerns PC-3. In words: MTT cell viability assay, PC-3. It counts as cell-based. Conditions: Homo sapiens, PC-3; MTT, 72 h; value (95% CI); read-out: CC50 (µM) (CI) PC-3. The method, then: as §1, §2, §3, §4

Usually CC50 stands for the concentration giving 50% cytotoxicity. By melting point is commonly meant the temperature of the solid-liquid transition. Regarding `COc1cc(C(=O)N(C)/N=C/c2ccccc2)cc(OC)c1OC` [LASSBio-1735 (3), (E)-N’-benzylidene-3,4,5-trimethoxy-N-methylbenzohydrazide], the melting point is 110 °C and 110.56 °C. Further, the half-maximal cytotoxic concentration (CC50) at 72 h in data set [1] is 0.131 µM. In addition, the CC50 in the data set on PC-9 (PC-9, 48 h, 48 h) stood at 1.34 µM. In the data set on PC-9 (PC-9, 72 h, 72 h), the CC50 came to 0.09 µM. Further, in the data set with LoVo [2], the CC50 was 0.149 µM. The half-maximal cytotoxic concentration (CC50) at 48 h in data set [3] came to 0.059 µM. For the same compound, in the data set on H1975 cells, the “cell morphology after treatment” value was “more spread-out morphology” and the “effect on microtubules (stabilizing / destabilizing profile)” value is “cell morphology similar to microtubule-stabilizing drugs”. Besides, in the data set on H1975 cells (listed as 3 (LASSBio-1735)), the “effect on microtubules (stabilizing / destabilizing profile)” value is on record as “microtubule destabilizing behavior”. Also, the CC50 in the data set on H292 (NCI-H292, 48 h, 48 h) was 0.152 µM. The CC50 in the data set with H292 (NCI-H292, 72 h, 72 h) was 0.25 µM. Also, the CC50 with MCF-7 (Homo sapiens, MCF7, 72 h) worked out at 0.28 µM. The CC50 with MCF-7 is 0.276 µM. Further, the midpoint of cytotoxicity in the data set on LoVo [4], the CC50, lay at 0.479 µM. Besides, the CC50 in the data set on PC-3 was found to be 0.201 µM.

Regarding `COc1cc(C(=O)N(Cc2ccccc2)/N=C/c2ccccc2)cc(OC)c1OC` [LASSBio-2070 (10), (E)-N-benzyl-N’-benzylidene-3,4,5-trimethoxybenzohydrazide], the melting point is 130 to 131 °C and 130.12 °C. Further, the CC50 at 72 h in [1] worked out at 1.05 µM. Also, the CC50 with PC-9 (PC-9, 48 h, 48 h) worked out at 0.244 µM. For the same compound, the CC50 with PC-9 (PC-9, 72 h, 72 h) was determined as 0.337 µM. In the data set on LoVo [2], the cytotoxic concentration (CC50) was determined as 0.208 µM. In [3], the half-maximal cytotoxic concentration (CC50) at 48 h was 0.935 µM. In addition, in the data set on H1975 cells, the “cell morphology after treatment” value is listed as “rounded shape” and the “effect on microtubules (stabilizing / destabilizing profile)” value is on record as “typical response of microtubule destabilizing agents”. For the same compound, the half-maximal cytotoxic concentration (CC50) in the data set on H292 (NCI-H292, 48 h, 48 h) is 0.147 µM. Also, the CC50 with H292 (NCI-H292, 72 h, 72 h) was 0.883 µM. Besides, the CC50 in the data set with MCF-7 (Homo sapiens, MCF7, 72 h) turned out to be 1.7 µM. The 50% cytotoxic concentration (CC50) with LoVo [4] was 2.12 µM. Moreover, the CC50 in the data set with PC-3 was found to be 0.361 µM.

In data set [1], `COc1cc(C(=O)N/N=C/c2ccccc2)cc(OC)c1OC` [LASSBio-1586 (2), (E)-N’-benzylidene-3,4,5-trimetoxybenzohydrazide] yielded a CC50 at 72 h of 1.51 µM. Further, the CC50 in the data set with PC-9 (PC-9, 48 h, 48 h) worked out at 0.94 µM; in the data set with PC-9 (PC-9, 72 h, 72 h) it was 0.587 µM; in the data set on LoVo [2] it was 0.039 µM; in the data set with H292 (NCI-H292, 48 h, 48 h) it was 2.19 µM; with H292 (NCI-H292, 72 h, 72 h), 1.4 µM; in the data set with MCF-7 (Homo sapiens, MCF7, 72 h) it was 7.53 µM. For the same compound, the 50% cytotoxic concentration (CC50) in the data set with LoVo [4] was determined as 1.72 µM; in the data set on PC-3 it was 1.62 µM. Also, the CC50 at 48 h in [3] came to 0.763 µM. Also, the “cell morphology after treatment” value in the data set on H1975 cells was “more spread-out morphology”. In addition, the “effect on microtubules (stabilizing / destabilizing profile)” value with H1975 cells is “cell morphology similar to microtubule-stabilizing drugs”; in the data set with H1975 cells (listed as 2 (LASSBio-1586)), “microtubule destabilizing behavior”.

Turning to `CCOC(=O)CN(/N=C/c1ccccc1)C(=O)c1cc(OC)c(OC)c(OC)c1` [LASSBio-2074 (11), Ethyl (E)-N-(benzylideneamino)-N-(3,4,5-trimethoxybenzoyl)glycinate], the melting point was 91 to 92 °C and 91.67 °C. This compound also registered a CC50 at 72 h in [1] of 4.19 µM. In addition, the 50% cytotoxic concentration (CC50) in the data set on PC-9 (PC-9, 48 h, 48 h) is 1.41 µM. Moreover, the CC50 in the data set on PC-9 (PC-9, 72 h, 72 h) came out at 0.202 µM. Also, the CC50 with LoVo [2] was 0.106 µM. The compound also gave a half-maximal cytotoxic concentration (CC50) at 48 h in [3] of 3.91 µM. Also, in the data set on H1975 cells, the “cell morphology after treatment” value is “more spread-out morphology” and the “effect on microtubules (stabilizing / destabilizing profile)” value is “cell morphology similar to microtubule-stabilizing drugs”. The half-maximal cytotoxic concentration (CC50) with H292 (NCI-H292, 48 h, 48 h) was 0.593 µM. Besides, the half-maximal cytotoxic concentration (CC50) in the data set with H292 (NCI-H292, 72 h, 72 h) came out at 0.75 µM. Besides, in the data set with MCF-7 (Homo sapiens, MCF7, 72 h), the cytotoxic concentration (CC50) was 0.869 µM. In addition, it took 2.64 µM to reach half-maximal cytotoxicity in the data set with LoVo [4] (CC50). The CC50 in the data set on PC-3 amounted to 1.36 µM.
